Assay results reported in patent publication US10350210B2, “EGFR and ALK dual inhibitor” (PRECEDO PHARMACEUTICALS CO., LTD, priority 2015, dated 2019).

Tests used:
[1] = tested on: BaF3-NPM-ALK; experiment: Cell growth (Cell Titer-Glo viability), BaF3-NPM-ALK; assay type: cell-based; details: Mus musculus; BaF3-NPM-ALK (stably expressing ALK kinase), 72 hrs
[2] = tested on: PC-9; experiment: Growth of cancer cells (Cell Titer-Glo viability), PC-9; assay type: cell-based; details: Homo sapiens; PC-9 (EGFR delE746_A750 mutant), 72 hrs
In short: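 Cells are counted as viable by CellTiter-Glo chemiluminescence. Murine BaF3 lines depend on a stably transfected TEL-fused kinase after IL-3 withdrawal, and the NSCLC lines express mutant EGFR.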

[3] = tested on: BaF3-TEL-ALK; experiment: Cell growth (Cell Titer-Glo viability), BaF3-TEL-ALK; assay type: cell-based; details: Mus musculus; BaF3-TEL-ALK (stably expressing ALK kinase), 72 hrs
In short: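 Human kinase sequences were PCR-amplified, fused to an N-terminal TEL fragment, and stably introduced into murine BaF3 by retrovirus. IL-3 was then removed to make growth kinase-dependent. Compound effects on these cells and on EGFR-mutant HCC827 and NCI-H3255 were scored by CellTiter-Glo luminescence.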

[4] = tested on: ALK protein (H3122); experiment: Effect on signaling pathway in cells, H3122; assay type: cell-based, human; details: H3122 (expressing ALK gene), 4 h
Experimental: In non-small cell lung cancer cell line H3122 (expressing ALK gene), the effect of Compound 1 on other protein kinases that are closely related to ALK such as Stat3, Ras, MEK1/2, ErK, mTOR, PI3K, JAK3, AKT in this cell was assessed by assaying a number of cellular biochemical and functional endpoints. […] The effect of Compound 1 on phosphorylation of Stat3 Y705, Ras, MEK1/2S217/221, Erk T202/204, mTOR, PI3K, JAK3Tyr980/981, AKT T308, AKT 5473 in this cell line was assayed (FIG. 1e).
In non-small cell lung cancer cell line H3122 (expressing ALK gene), the effect of Compound 10 on ALK and other protein kinases that are closely related to ALK such as Stat3, Ras, MEK1/2, ErK, mTOR, PI3K, JAK3, AKT in this cell was assessed by assaying a number of cellular biochemical and functional endpoints. The lung cancer cell H3122 (expressing ALK gene) was treated with different concentrations of 0 μM, 0.03 μM, 0.1 μM, 0.3 μM, 1 μM, 3 μM of Compound 10 (in DMSO), 1 μM of AZD9291 (in DMSO) (purchased from Shanghai Haoyuan Chemexpress Co., Ltd.), 1 μM of LDK378 (in DMSO) (purchased from Shanghai Haoyuan Chemexpress Co., Ltd.), and blank control (DMSO) for 4 h, and the samples were collected. The effect of Compound 10 on phosphorylation of ALK Y1604, Stat3 Y705, Ras, MEK1/25217/221, Erk T202/204, mTOR, PI3K, JAK3 Tyr980/981, AKT T308, AKT S473 in this cell line was assayed (FIG. 1f).

GI50 [1] | GI50 [2] | GI50 [3] | Structure (SMILES) | concentration able to significantly inhibit the phosphorylation of ALK protein [4] | concentration that almost completely inhibited the phosphorylation of ALK protein [4] | effects on other protein kinases closely related to ALK protein (Stat3, Ras, MEK1/2, ErK, JAK3, AKT) [4]
1 nM | 15 nM | 3 nM | C=CC(=O)Nc1cc(Nc2ncc(Cl)c(Nc3ccccc3S(=O)(=O)C(C)C)n2)c(OC)cc1N1CCCN(C)CC1 [Compound 10, N-(5-(5-chloro-4-(2-(isopropylsulfonyl)phenylamino)pyrimidin-2-ylamino)-4-methoxy-2-(4-methyl-1,4-homopiperazin-1-yl)phenyl)acrylamide] | 0.03 µM | 0.1 µM | evident effects
< 0.3 nM | 0.7 nM | < 0.3 nM | C=CC(=O)Nc1cc(Nc2ncc(Cl)c(Nc3ccccc3S(=O)(=O)C(C)C)n2)c(OC)cc1N1CCN(CC)CC1 [Compound 1, N-(5-(5-chloro-4-(2-(isopropylsulfonyl)phenylamino)pyrimidin-2-ylamino)-2-(4-ethylpiperazin-1-yl)-4-methoxyphenyl)acrylamide] | 0.1 µM | 0.3 µM | evident effects
